From PubChem BioAssay AID2060493 (Molecular Pharmacology Branch, DTP, NCI, 2025)

Test system: 616215-338-R-J1-PDC tumor spheroids, viability
Experiment: Anticancer human tumor 616215-338-R-J1-PDC patient-derived colon adenocarcinoma cell line growth inhibition [GQUAD]
Conditions: spheroids with HUVEC and MSC; for IC50: curve of first compound; for viability, T/C: stronger effect = lower value
How it was run: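 Tumor cells were grown as complex spheroids with HUVEC endothelial cells and mesenchymal stem cells as stroma. G-quadruplex stabilizers were combined with targeted agents over half-log dilutions from near the clinical Cmax, or from 10 microM.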

[1] = second compound 0.0316 µM, first compound 0.0316 µM
[2] = second compound 0.0316 µM, first compound 0.316 µM
[3] = second compound 0.1 µM, first compound 0.0316 µM
[4] = second compound 0.1 µM, first compound 0.316 µM
[5] = second compound 0.316 µM, first compound 0.0316 µM
[6] = second compound 0.316 µM, first compound 0.316 µM
[7] = second compound 1 µM, first compound 0.0316 µM
[8] = second compound 1 µM, first compound 0.316 µM
[9] = second compound 3.16 µM, first compound 0.0316 µM
[10] = second compound 3.16 µM, first compound 0.316 µM
[11] = second compound 10 µM, first compound 0.0316 µM
[12] = second compound 10 µM, first compound 0.316 µM
[13] = second compound 0.0316 µM, first compound 0.1 µM
[14] = second compound 0.0316 µM, first compound 1 µM
[15] = second compound 0.0316 µM, first compound 3.16 µM
[16] = second compound 0.0316 µM, first compound 10 µM
[17] = second compound 0.1 µM, first compound 0.1 µM
[18] = second compound 0.1 µM, first compound 1 µM
[19] = second compound 0.1 µM, first compound 3.16 µM
[20] = second compound 0.1 µM, first compound 10 µM
[21] = second compound 0.316 µM, first compound 0.1 µM
[22] = second compound 0.316 µM, first compound 1 µM
[23] = second compound 0.316 µM, first compound 3.16 µM
[24] = second compound 0.316 µM, first compound 10 µM
[25] = second compound 1 µM, first compound 0.1 µM
[26] = second compound 1 µM, first compound 1 µM
[27] = second compound 1 µM, first compound 3.16 µM
[28] = second compound 1 µM, first compound 10 µM
[29] = second compound 3.16 µM, first compound 0.1 µM
[30] = second compound 3.16 µM, first compound 1 µM
[31] = second compound 3.16 µM, first compound 3.16 µM
[32] = second compound 3.16 µM, first compound 10 µM
[33] = second compound 10 µM, first compound 0.1 µM
[34] = second compound 10 µM, first compound 1 µM
[35] = second compound 10 µM, first compound 3.16 µM
[36] = second compound 10 µM, first compound 10 µM
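Also: spheroids exposed to agents for 7 days before readout.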
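For viability, T/C in this document: percent viability relative to DMSO vehicle control wells taken as 100%.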

`CCc1c2c(nc3ccc(O)cc13)-c1cc3c(c(=O)n1C2)COC(=O)[C@]3(O)CC` + CN(C)c1ccc(Nc2c3ccc(NC(=O)CCN4CCCC4)cc3nc3cc(NC(=O)CCN4CCCC4)ccc23)cc1 was tested, and the IC50 (second compound 0.0316 µM) was 0.0143 µM, the IC50 (second compound 0.1 µM) was 0.0174 µM and the IC50 (second compound 0.316 µM) was 0.0146 µM. For the same molecule, the IC50 (second compound 1 µM) was 0.0124 µM, the IC50 (second compound 3.16 µM) was 0.0113 µM and the IC50 (second compound 10 µM) was 0.00862 µM. It also gave a viability, T/C (second compound 0.0316 µM, first compound 0.000999 µM) of 93.8%, a viability, T/C (second compound 0.0316 µM, first compound 0.00316 µM) of 92.4% and a viability, T/C (second compound 0.0316 µM, first compound 0.00999 µM) of 53.7%. The viability, T/C [1] was 32.6%, the viability, T/C (second compound 0.0316 µM, first compound 0.0999 µM) was 18.1% and the viability, T/C [2] was 8.35%. The viability, T/C (second compound 0.1 µM, first compound 0.000999 µM) was 112%, the viability, T/C (second compound 0.1 µM, first compound 0.00316 µM) was 99.8% and the viability, T/C (second compound 0.1 µM, first compound 0.00999 µM) was 70.3%. For the same molecule, the viability, T/C [3] was 28.9%, the viability, T/C (second compound 0.1 µM, first compound 0.0999 µM) was 13.8% and the viability, T/C [4] was 12.4%. It also gave a viability, T/C (second compound 0.316 µM, first compound 0.000999 µM) of 101%, a viability, T/C (second compound 0.316 µM, first compound 0.00316 µM) of 96.7% and a viability, T/C (second compound 0.316 µM, first compound 0.00999 µM) of 59.9%. The viability, T/C [5] was 27%, the viability, T/C (second compound 0.316 µM, first compound 0.0999 µM) was 18% and the viability, T/C [6] was 8.81%. For the same molecule, the viability, T/C (second compound 1 µM, first compound 0.000999 µM) was 97.3%, the viability, T/C (second compound 1 µM, first compound 0.00316 µM) was 94.3% and the viability, T/C (second compound 1 µM, first compound 0.00999 µM) was 46.9%. It also gave a viability, T/C [7] of 35%, a viability, T/C (second compound 1 µM, first compound 0.0999 µM) of 20.5% and a viability, T/C [8] of 10.3%. It also gave a viability, T/C (second compound 3.16 µM, first compound 0.000999 µM) of 98.3%, a viability, T/C (second compound 3.16 µM, first compound 0.00316 µM) of 86.8% and a viability, T/C (second compound 3.16 µM, first compound 0.00999 µM) of 49.3%. For the same molecule, the viability, T/C [9] was 30.2%, the viability, T/C (second compound 3.16 µM, first compound 0.0999 µM) was 19.3% and the viability, T/C [10] was 12.6%. The viability, T/C (second compound 10 µM, first compound 0.000999 µM) was 95.7%, the viability, T/C (second compound 10 µM, first compound 0.00316 µM) was 73.9% and the viability, T/C (second compound 10 µM, first compound 0.00999 µM) was 46%. The viability, T/C [11] was 25.9%, the viability, T/C (second compound 10 µM, first compound 0.0999 µM) was 13.2% and the viability, T/C [12] was 8.62%.
For `C=CC(=O)N1CCN(c2nc(=O)n(-c3c(C)ccnc3C(C)C)c3nc(-c4c(O)cccc4F)c(F)cc23)C(C)C1` (stereo unspecified) + Cc1[nH]c2ccc(F)cc2c1-c1nc2c3cccnc3c3ncccc3c2[nH]1, the IC50 (second compound 0.0316 µM) was greater than 10 µM, the IC50 (second compound 0.1 µM) was greater than 10 µM and the IC50 (second compound 0.316 µM) was greater than 10 µM. For the same molecule, the IC50 (second compound 1 µM) was greater than 10 µM, the IC50 (second compound 3.16 µM) was greater than 10 µM and the IC50 (second compound 10 µM) was greater than 10 µM. It also gave a viability, T/C [1] of 102%, a viability, T/C [13] of 95% and a viability, T/C [2] of 97.3%. For the same molecule, the viability, T/C [14] was 104%, the viability, T/C [15] was 89.7% and the viability, T/C [16] was 82.1%. The viability, T/C [3] was 102%, the viability, T/C [17] was 92.5% and the viability, T/C [4] was 102%. For the same molecule, the viability, T/C [18] was 96.9%, the viability, T/C [19] was 93.9% and the viability, T/C [20] was 71.6%. It also gave a viability, T/C [5] of 87.4%, a viability, T/C [21] of 98.6% and a viability, T/C [6] of 96.8%. The viability, T/C [22] was 108%, the viability, T/C [23] was 88.6% and the viability, T/C [24] was 67.7%. The viability, T/C [7] was 99.7%, the viability, T/C [25] was 93.2% and the viability, T/C [8] was 90.8%. It also gave a viability, T/C [26] of 105%, a viability, T/C [27] of 92.5% and a viability, T/C [28] of 71.8%. The viability, T/C [9] was 100%, the viability, T/C [29] was 88.2% and the viability, T/C [10] was 107%. The viability, T/C [30] was 88.3%, the viability, T/C [31] was 87.6% and the viability, T/C [32] was 59.1%. The viability, T/C [11] was 99.7%, the viability, T/C [33] was 84.9% and the viability, T/C [12] was 88%. The viability, T/C [34] was 90.2%, the viability, T/C [35] was 86.2% and the viability, T/C [36] was 69.2%.
With `Cc1cccc(N(C)C(=O)C2C(O)CCN2c2nc(C)cc(C(F)(F)F)c2C#N)c1` (stereo unspecified) + Cc1[nH]c2ccc(F)cc2c1-c1nc2c3cccnc3c3ncccc3c2[nH]1 the IC50 (second compound 0.0316 µM) was greater than 10 µM, the IC50 (second compound 0.1 µM) was greater than 10 µM and the IC50 (second compound 0.316 µM) was greater than 10 µM. For the same molecule, the IC50 (second compound 1 µM) was greater than 10 µM, the IC50 (second compound 3.16 µM) was greater than 10 µM and the IC50 (second compound 10 µM) was greater than 10 µM. The viability, T/C [1] was 92.8%, the viability, T/C [13] was 102% and the viability, T/C [2] was 93.7%. For the same molecule, the viability, T/C [14] was 87.6%, the viability, T/C [15] was 101% and the viability, T/C [16] was 104%. The viability, T/C [3] was 99.4%, the viability, T/C [17] was 93.8% and the viability, T/C [4] was 99.1%. For the same molecule, the viability, T/C [18] was 104%, the viability, T/C [19] was 99.6% and the viability, T/C [20] was 95.5%. It also gave a viability, T/C [5] of 91%, a viability, T/C [21] of 92.1% and a viability, T/C [6] of 99.4%. For the same molecule, the viability, T/C [22] was 100%, the viability, T/C [23] was 97.6% and the viability, T/C [24] was 96.6%. For the same molecule, the viability, T/C [7] was 103%, the viability, T/C [25] was 92% and the viability, T/C [8] was 96.7%. The viability, T/C [26] was 93.9%, the viability, T/C [27] was 105% and the viability, T/C [28] was 103%. It also gave a viability, T/C [9] of 94.4%, a viability, T/C [29] of 87% and a viability, T/C [10] of 96.5%. It also gave a viability, T/C [30] of 91.6%, a viability, T/C [31] of 104% and a viability, T/C [32] of 107%. The viability, T/C [11] was 108%, the viability, T/C [33] was 94.4% and the viability, T/C [12] was 96.2%. For the same molecule, the viability, T/C [34] was 88%, the viability, T/C [35] was 107% and the viability, T/C [36] was 86.5%.
